From PubChem BioAssay AID179 (DTP/NCI, 2004)
“And” between values parts separate entries of the source, which are not always exact repeats. Equal values may be shown once. The source made the active and inactive calls.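 Rule for the calls: active = compounds giving half or more protection of infected cells from virus-caused growth loss, again on retest; inactive = the rest.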

Tested on: CEM cells HIV-1 protection, formazan growth assay
Test: NCI AIDS Antiviral Assay
Conditions: for IC50: measured here: growth of uninfected CEM cells
Procedure, shortened: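 Human CEM cells, uninfected and HIV-1-infected, received five drug concentrations, and growth was read by soluble formazan assay. Compounds giving at least 50% protection were retested; reproducible 100% protection defined confirmed active.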

Compound	EC50 [µM]	IC50	outcome
COc1cc2c(c(OC)c1O)-c1ccc(OC)c(=O)cc1[C@@H](NC(=O)C(F)(F)F)CC2	> 2	0.0363 µM	–
Cc1cc(C)nc(NS(=O)(=O)c2ccc(Nc3c4ccccc4nc4ccc(C(=O)Nc5ccc(S(=O)(=O)N=C(N)N)cc5)cc34)cc2)n1	> 93.3	47.9 µM	–
Oc1cccc2ccc(SSc3ccc4cccc(O)c4n3)nc12	> 200	20.4 µM	–
COCn1cnc2c(=O)nc(SC)n(-c3ccccc3)c21	> 200	> 200 µM	–
O=C(O)Cn1c[n+](NC(=O)Cc2ccccc2)cn1	> 200	> 200 µM	–
CCCCCCCCCCCc1c2oc3ccccc3nc-2cc(Nc2ccccc2O)c1=O	> 2.95	> 2.95 µM	–
O=c1oc2ccc(Br)cc2cc1-n1nnc2cc([N+](=O)[O-])ccc21	> 17.4	> 17.4 µM	–
O=C1C[C@@H]2C(COC(=O)c3ccccc3)N(OCc3ccccc3)C[C@@H]2O1 (stereo not given in full)	> 97.7	> 97.7 µM	–
CCc1ccc(N=Cc2cc(OC)c(OC)c(OC)c2)cc1	> 33.1	> 33.1 µM	–
CCC(=O)N/N=C(\C=C\c1cccc(O)c1)c1sc(Nc2ccc(C)cc2[N+](=O)[O-])nc1C	> 77.6	> 77.6 µM	–
CCCCN(CC)C(=O)C(=O)Cc1nc2ccc(C(=O)c3ccccc3)cc2[nH]c1=O	> 17.4	> 17.4 µM	–
CSC1=Nc2ccccc2-c2nc3ccccc3cc2C1	–	–	inactive
COc1cc(/C=C/c2nc3ccccc3nc2/C=C/c2cc(OC)c(OC)c(OC)c2)cc(OC)c1OC	> 7.41	> 7.41 µM	–
NC1=Nc2ccccc2Sc2nccn21	> 200	28.8 µM	–
Cc1ccc(C2(O)CC(c3ccc([N+](=O)[O-])o3)=NN2C(=O)COc2ccc(Cl)cc2)cc1 (stereo not given)	> 11.5	> 11.5 µM	–
O=C(CCn1[nH]c(=O)c(Cl)c(Cl)c1=O)NOCCCc1ccccc1	> 646	> 646 µM	–
CCCn1c(=O)c2nn3c(=O)n(CCC)c(=O)c3nn2c1=O	> 200	> 200 µM	–

Compound	EC50 [µM]	IC50	outcome
CCOc1ccc(N=Cc2ccc3ccccc3n2)cc1	–	–	inactive
CCCCCCCCCC1CC(=O)c2c(O)cccc2O1 (stereo not given)	> 18.2	> 18.2 µM	–
CCCCCCCCCCOCC(COCCOCC(COCCCCCCCCCC)OS(=O)(=O)O)OS(=O)(=O)O (stereo not given)	> 186	42.7 µM	–
O[C@@H]1CCNC[C@@H]1CNC12CC3CC(CC(C3)C1)C2	> 955	275 µM	–
Fc1cccc(F)c1C1SCc2nc3ccccc3n21 (stereo not given)	–	41.7 µM and 56.2 µM	–
CCOC(=O)CC1(c2ccccc2)OC(=O)c2ccccc21 (stereo not given)	–	–	inactive
CC1(C)S[C@H](c2ccccc2C(=O)O)N[C@@H]1CC(=O)O	–	–	inactive
CC12CCC(C(=O)n3c1nc1ccccc13)C(C)(C)O2 (stereo not given)	> 200	> 200 µM	–
CN1CC(=O)N(C)c2nc[nH]c2C1=O	–	–	inactive
O=C(O)c1ccc(N=Nc2ccc(/C=C/c3ccc(N=Nc4ccc(C(=O)O)cc4O)cc3S(=O)(=O)O)c(S(=O)(=O)O)c2)c(O)c1	> 513	4.27 µM	–
O=S(=O)(OC(=C(c1ccccc1)c1ccccc1)c1ccccc1)C(F)(F)F	> 17.8	> 17.8 µM	–
O=C(O)/C(=C/c1c(O)ccc2ccccc12)c1csc(-c2nc(/C(=C\c3c(O)ccc4ccccc34)C(=O)O)cs2)n1	> 43.7	23.4 µM	–
C=CCCC[P+](c1ccccc1)(c1ccccc1)c1ccccc1	> 200	1.15 µM	–
CCc1cccc(C(C)C)c1NC(=O)C(=O)C(c1ccccc1)S(=O)(=O)Cc1ccccc1 (stereo not given)	> 200	> 200 µM	–
CN(C)Cc1cc(N=Nc2ccccc2Cl)cc(CN(C)C)c1O	> 200	93.3 µM	–
Cc1cc(C)c(-c2no/c(=N\S(=O)(=O)c3ccc(Cl)cc3)o2)c(C)c1	> 200	> 200 µM	–
